Data reported in patent publication US20140051729A1, “COMPOSITIONS AND METHODS FOR TREATING DEGENERATIVE MUSCLE CONDITIONS” (University of Washington, priority 2011, published 2014).

Key:
mdx:myf5^nlacz/+ mice = assay: Intramuscular S1P after CTX injury in mdx:Myf5nlacZ/+ mice (x-gal, myogenin, eMyHC staining); assay type: in vivo, mouse
Protocol: S1P is involved in muscle satellite cell turnover, myoblast differentiation, and muscle regeneration in non-diseased mice. […] The effects of S1P treatment were examined following CTX induced acute injury in dystrophic muscles. To identify myogenic cells, mdx:myf5^nlacz/+ mice were used carrying the nuclear lacZ reporter driven by the endogenous Myf5 gene. CTX was applied to both TA muscles (n=3 mice, 3 month-old mdx:myf5^nlacz/+ males), then S1P was injected intramuscularly into left TAs and a vehicle control into right TAs daily for the first three days following injury. TAs were harvested on day 4 post injury for analysis of β-galactosidase positive (Myf5+) nuclei.
Right and left TAs of three, 3 month old male mdx4cv:Myf5nlacZ/+ were injected with […] cardiotoxin (Calbiochem) in PBS from Naja nigrcollis. For the dysferlinopathy study, right and left TAs of 9 month old male and female A/J mice (JAX Mice, Bar Harbor, Me.) were injected with […] cardiotoxin (Calbiochem) in PBS from Naja nigrcollis. S1P (Enzo; Calbiochem) preparation was done according to manufacturer's instructions. Briefly, S1P was dissolved in methanol (0.5 mg/ml) and aliquoted, then the solvent was evaporated with a stream of nitrogen to deposit a thin film on the inside of the tube. Aliquots were dissolved with 4 mg/ml BSA (fatty acid free) to make 500 uM stocks. Directly following cardiotoxin injection, 500 uM S1P in PBS with 4 mg/ml BSA was injected in left TAs (20 ul), daily until day 3 post-injury at which time animals were euthanized and muscles were harvested for freezing. Right TAs were injected with an equal volume of PBS with 4 mg/ml BSA as vehicle controls. In a separate experiment TAs of four 2.5 month-old female mdx4cv were injected with S1P or vehicle under the same conditions stated above, in the absence of injury.
All mouse muscles were frozen directly in OCT with liquid nitrogen cooled in isopentane and sections of 8 μm thickness were obtained. Tissue for x-gal staining, was fixed for 10 min with 2% formaldehyde/0.2% glutaraldehyde and incubated overnight at 37° C. with staining buffer (PBS with 1 mg/ml x-gal, 5 mM potassium ferricyanide, 5 mM potassium ferrocyanide, and 2 mM […] (all from Fisher). Oil Red-O and Picrosirius red staining were done following established protocols. For eMyHC staining, tissue was first fixed with 2% formaldehyde for 5 min, treated with streptavidin/avidin blocking kit (Vector labs), and blocked with IgG block from M.O.M kit (Vector Labs) for 5 hrs at 4° C. Following blockade, concentrated mouse anti-eMyHC (clone F1.652 received at 357 μg/ml IgG) obtained from the developmental studies hybridoma bank (DHSB, University of Iowa) was administered at 1:400 dilution, overnight at 4° C. The remainder of the staining was done following mouse-on-mouse (M.O.M) kit staining instructions. For laminin staining tissue was also fixed with 2% formaldehyde for 5 min, and then treated with polyclonal rabbit anti-laminin (Sigma) for 1 hr at a 1:400 dilution in PBS+1% BSA. Following washes, Alexa Fluor 488 conjugated goat anti-rabbit IgG (Invitrogen) was administered at 1:800 dilution for 1 hr. Controls omitting the primary antibody were included with all staining. Staining quantifications were all done using ImageJ v1.40 (Wayne Rasband, NIH) cell counter plugin (Kurt De Vos, University of Sheffield). Calculations, statistics, and graphs were generated with Microsoft Excel. […]

A/J mice = assay: S1P in dysferlinopathy model after CTX injury (picrosirius red fibrosis); assay type: in vivo, mouse; details: A/J mice 9 month old, S1P intramuscular daily three days, 6 days post injury, vs vehicle
Protocol: The A/J mouse strain (JAX Mice, Bar Habor, Me.) lacks dysferlin and is a model for dysferlinopathy. The effects of S1P treatment of A/J mice was examined following CTX induced acute injury. CTX was applied to both TA muscles (2× male, 2× female, 9 month old), then S1P was injected intramuscularly into left TAs and a vehicle control (saline) in right TAs daily for the first three days following CTX injury. The TAs were harvested and examined for muscle fibrosis (picrosirius red staining) 6 days post injury.
Right and left TAs of three, 3 month old male mdx4cv:Myf5nlacZ/+ were injected with […] cardiotoxin (Calbiochem) in PBS from Naja nigrcollis. For the dysferlinopathy study, right and left TAs of 9 month old male and female A/J mice (JAX Mice, Bar Harbor, Me.) were injected with […] cardiotoxin (Calbiochem) in PBS from Naja nigrcollis. S1P (Enzo; Calbiochem) preparation was done according to manufacturer's instructions. Briefly, S1P was dissolved in methanol (0.5 mg/ml) and aliquoted, then the solvent was evaporated with a stream of nitrogen to deposit a thin film on the inside of the tube. […]
All mouse muscles were frozen directly in OCT with liquid nitrogen cooled in isopentane and sections of 8 μm thickness were obtained. […] Staining quantifications were all done using ImageJ v1.40 (Wayne Rasband, NIH) cell counter plugin (Kurt De Vos, University of Sheffield). […]

Akt/mTOR signaling = assay: Western blot of uninjured TA muscle of mdx mice after intramuscular S1P; assay type: in vivo, mouse; details: three days of daily S1P injections, vs vehicle TA
Protocol: To discern if the S1P dependent increase in mdx muscle fiber size was due to hypertrophy, the activation of Akt/mTOR signaling was examined. S1P induced hypertrophy has been described in cultured cardiomyocytes, which was accompanied by activation of Akt and S6 kinase. In turn, Akt and mTOR signaling via S6 kinase, an activator of ribosomal S6 implicated in protein synthesis, has been described as sufficient to induce skeletal muscle hypertrophy. Therefore it was determined if the increase in muscle fibers by S1P was mediated by Akt/mTOR signaling. Since THI induces a S1P increase throughout the body, S1P was administered directly into muscle in mdx mice and levels of activated/phosphorylated Akt, mTOR, and S6 were measured. S1P was injected directly into uninjured TA muscle to measure potential effects on these pathways in the absence of injury. As before, S1P was injected into left TAs and vehicle into right TAs of the same animals (FIG. 6a). […]
Tissue for western blot analysis was snap frozen in liquid nitrogen and subsequently homogenized. […] Protein extracts were separated using BioRad Tris-HCl ready gels 4-20% linear gradient and transferred to polyvinylidene difluoride (PVDF) membranes with a wet transfer system (BioRad). […] The signals were detected using an enhanced chemiluminescence kit (Millipore) and CL-XPosure Films (Thermo Scientific) were analyzed using ImageJ.

[1] = system: dystrophic flies (w; +/+; Dys^det1/Dys^det1); assay: Myofibril analysis of muscle wasting in dystrophic flies fed S1P promoting agents; assay type: in vivo, Drosophila; details: 217 μM in feed, three feeding cycles
Protocol: The effect of THI, a derivative of THI ((E)-1-(4-((1R,2S,3R)-1,2,3,4-tetrahydroxybutyl)-1H-imidazol-2-yl)-ethanone oxime) (“THI-oxime”), and a sphingosine analog (FTY720) on muscle wasting in dystrophic Drosopila flies was observed. Before feeding, 4 day old dystrophic flies (genotype: w; +/+; Dys^det1/Dys^det1) were placed in empty vials and starved for 6 hours. The flies were then provided access to one of a solution of 0.05 mg/mL (217 μM) 2-Acetyl-4(5)-tetrahydroxybutyl Imidazole (THI), or 217 μM FTY720, or 217 μM THI-oxime, in 5% light corn syrup in water for 16-18 hrs. After feeding, the flies were placed in new yeasted vials for 6-7 hrs. Flies were then transferred to empty vials with access to a 217 μM solution of THI, FTY720 or THI-oxime in a 5% light corn syrup in water for 16-18 hrs. This feeding cycle was repeated for a third time. After feeding for three cycles, the flies were placed in new yeasted vials. The 7-day old flies that had been administered the THI-oxime were analyzed immediately after the last feeding. The flies that has been administered THI and FTY720 were analyzed as 10-day old flies, three days after the last feeding with THI and FTY720.
Myofibril immunochemistry analysis was performed as disclosed herein. For each treatment group, 5 flies were analyzed, and 3 muscles per fly and 2 myofibrils per muscle were analyzed. Two tailed Student's t test was used to evaluate significance.
Flies were dipped in 95% EtOH and then dissected in 1×PBS (pH 7.4). Heads and abdomens were removed, and the thoraxes opened. Samples were stained using a modified ovary staining protocol 3. Samples were then fixed in 5% paraformaldehyde (Electron Microscopy Sciences) for 1 hour, rinsed in PBT (PBS/0.2% Triton X-100 v/v) 4 times, and then blocked for 1 hour in PBTB (PBT, 0.4% BSA w/v, 5% Normal Goat Serum v/v) at room temperature. […] For each genotype, 4-5 flies were analyzed, and 6-7 muscles per fly were analyzed.

mdx mice = assay: EDL muscle myography in mdx mice; assay type: in vivo, mouse; details: THI-oxime IP twice-daily two weeks, 75 ug per day, at 120 Hz; vehicle 58 at 100 Hz
Protocol: The effect of THI administration on muscle function and recovery in mdx mice was analyzed. The mice were injected intraperitoneally with THI in PBS or vehicle alone (PBS) twice-daily for two weeks. Total amount of THI delivered per day was 75 ug. Extensor digitorum longus (EDL) muscles were excised from the mice and equilibrated in ringer's solution with 95% O2/5% CO2 for a minimum of 15 minutes prior to stimulation. Myography was conducted using a DMT 820S myograph and data was recorded using PowerLab 4/30 acquisition system with LabChart Pro software v7.3.1 (both from ADI instruments, Colorado Springs, Colo.). Stimulations were conducted with a Grass Instrument S88X system (Grass Technologies, West Warwick, R.I.). Muscles were stimulated to establish optimal fiber length (Lf) and voltage at which maximum tetanic force was measured at 120 Hz within a 450 ms duration.
Specific force was calculated as previously described in Gregorevic P. et al. (Gregorevic P. et al., Muscle Nerve. 2004 September; 30(3):295-304, PMID#15318340) by normalizing to whole muscle cross-sectional area (CSA). CSA is the quotient of […] muscle mass over the optimal muscle length (Lo) which is defined as the product of muscle fiber length (Lf) with the fiber length ratio (0.44 for EDL) and mammalian muscle density (1.06).
Muscle recovery was measured after muscle was fatigued with stimulation over 6 minutes. […] Recovery was determined by examining muscle force at 5, 10, and 15 minutes after stimulation. […] Therefore, the administration of THI improved muscle recovery and function in dystrophic mice.
The effect of THI-oxime administration on muscle function and recovery in mdx mice was analyzed. The mice were injected intraperitoneally with THI-oxime (n=3) or PBS vehicle alone (n=4) twice-daily for two weeks and then analyzed between 1-4 days following the final day of injection. Total amount of THI-oxime delivered per day was 75 ug. Prior to euthanasia, the animals were anesthetized with 0.5 mg/g weight avertin diluted in PBS. EDL muscles were excised from the mice and equilibrated in ringer's solution (120 mM NaCl, 4.7 mM KCl, 3.15 mM MgCl2, 1.3 mM NaH2PO4, 25 mM NaHCO3, 11 mM Glucose, 1.25 mM CaCl2, pH 7.2) with 95% O2/5% CO2 for a minimum of 15 minutes prior to stimulation. All functional experiments were carried out with buffer solutions at 25° C. under constant oxygenation. Myography was conducted using a DMT 820S myograph and data was recorded using PowerLab 4/30 acquisition system with LabChart Pro software v7.3.1 (both from ADI instruments, Colorado Springs, Colo.). […] Muscles were stimulated to establish optimal fiber length (Lf) and voltage at which maximum tetanic force was measured at 120 Hz within a 450 ms duration. […]

CCCCCCCCCCCCC/C=C/[C@@H](O)[C@@H](N)COP(=O)(O)O [S1P, Sphingosine-1-phosphate]
numbers of Myf5+ nuclei in areas with severe CTX damage (mdx:myf5^nlacz/+ mice; S1P intramuscular daily for three days, TAs harvested day 4, vs vehicle TA): four-fold increase | Myf5+ cells for the entire cross-sectional area of treated TA (mdx:myf5^nlacz/+ mice; S1P intramuscular daily for three days, day 4, vs vehicle TA): gross increase | increase in the number of eMyHC+ fibers (mdx:myf5^nlacz/+ mice; S1P treated TAs vs vehicle): 3.6 fold | size of regenerating myofibers (minimum diameter of largest eMyHC+ fibers) (mdx:myf5^nlacz/+ mice; S1P treated TAs vs vehicle): significantly greater | number of myogenin positive nuclei (mdx:myf5^nlacz/+ mice; S1P treated vs vehicle treated CTX injured TAs): slightly higher but not significantly different | average percentage of fibrosis in CTX injured TA muscles (A/J mice): significantly decreased | levels of S6 and phosphorylated S6 (Akt/mTOR signaling): significantly increased | levels of phosphorylated Akt and mTOR (Akt/mTOR signaling): not significantly higher

CCCCCCCCc1ccc(CCC(N)(CO)CO)cc1 [FTY720, 2-amino-2-[2-(4-octylphenyl)ethyl]propane-1,3-diol]
wild-type myofibrils ([1]; 10-day old flies, three days after last feeding): 73.83%

C/C(=N\O)c1nc([C@@H](O)[C@H](O)[C@H](O)CO)c[nH]1 [THI-oxime, (E)-1-(4-((1R,2S,3R)-1,2,3,4-tetrahydroxybutyl)-1H-imidazol-2-yl)-ethanone oxime]
wild-type myofibrils ([1]; 7-day old flies, negative control 39.05%): 67.62% | maximum specific force of EDL muscle (mdx mice): 73 KN/m^2
